From patent publication US20200170932A1, “EXTENDED RELEASE L-TRI-IODOTHYRONINE SAFELY NORMALIZES KEY ELEMENTS OF MOLECULAR PATHOLOGY IN ALZHEIMERS DISEASE” (priority 2018, published 2020)

Key:
[1] = system: rat model of AD; details: rat model of AD (Sarkar); cited from earlier work
[2] = system: patients with AD; assay: Administering T3 to patients with AD (clinical observation); type: in vivo, human
Text: The noradrenerigic neurotransmitter system is dependent on normal thyroid hormone activity for normal function. A deficient amount of thyroid hormone activity leads to downregulation of the noradrenergic system. This leads to attenuated postsynaptic effects and a failure to prosecute the noradrenergic mandate. In AD this phenomenon accounts for various signs and symptoms. There are aberrations of the diurnal rhythm including insomnia and daytime somnolence. Depression and/or anxiety may occur. Drooping of the upper eyelid (ptosis) is frequently seen in AD. The levator palpebrae superioris muscle, the elevator of the upper eyelid, is partially innervated by the sympathetic nervous system.

[3] = compounding pharmacies' technology, personal communication; cited from earlier work
[4] = following ingestion; cited from earlier work

With N[C@@H](Cc1cc(I)c(Oc2ccc(O)c(I)c2)c(I)c1)C(=O)O [T3, 3,5,3′-triiodothyronine] as the compound, how does the “histology, memory and electrophysiological activity in the cholinergic system” value [1] read?
Its value is “improved histology, memory and electrophysiological activity in the cholinergic system”.

What about the “countenance and alertness (ptosis, adrenergic dysregulation)” value [2] of the same compound?
The value was “rapid, within days, and dramatic wide-eyed countenance and an appearance of increased alertness”.

And the “time of release to completion” value [3]?
The value was 2 to 8 h.

What about the “time to peak levels” value [4] of the same compound?
Its value is “one to two”.
